According to the supplement of paper PMC8671470:

Tests used:
Conditions in all cases: 72 h
HEL [1] = system: HEL
How it was run: (§1)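 Fifteen myeloid leukaemia cell lines were seeded in RPMI 1640 at densities titrated to the linear growth range and placed in 384-well plates with acoustically pre-printed compounds at five tenfold doses from 1 to 10,000 nM, in duplicate. After 72 h at 37 °C with 5% CO2, luminescent ATP viability was normalised to vehicle and to a positive control at 10 µM, and curves were fitted with a four-parameter log-logistic model. The IC50 was obtained from these fits.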

NOMO-1 [2] = system: NOMO-1
How it was run: as §1

MV4-11 [3] = system: MV4-11
How it was run: as §1

ML-2 [4] = system: ML-2
How it was run: as §1

SHI-1 [5] = system: SHI-1
How it was run: as §1

LAMA-84 = system: LAMA-84
How it was run: as §1

K-562 [6] = system: K-562
How it was run: as §1

KG-1 [7] = system: KG-1
How it was run: as §1

KCL-22 [8] = system: KCL-22
How it was run: as §1

KU-812 [9] = system: KU-812
How it was run: as §1

MOLM-13 [10] = system: MOLM-13
How it was run: as §1

Mono-Mac-6 [11] = system: Mono-Mac-6
How it was run: as §1

THP-1 [12] = system: THP-1
How it was run: as §1

HL-60 [13] = system: HL-60
How it was run: as §1

BV-173 [14] = system: BV-173
How it was run: as §1

HEL [15] = assay: cell viability (% survival relative to DMSO control, bortezomib = 0%); higher = less cytotoxic
How it was run: (§2)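 Seeding density for each of the 10 AML and 5 CML cell lines was titrated to the linear growth range. Cells went into 384-well plates pre-printed in duplicate with compounds at 1, 10, 100, 1000 or 10000 nM and were held for 72 h at 37 °C with 5% CO2. CellTiter-Glo luminescence then provided the readout. Percent survival is expressed relative to vehicle at 100% and a 10 µM positive control at 0%, averaged over duplicates.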

NOMO-1 [16] = assay: as above
How it was run: as §2

MV4-11 [17] = assay: as above
How it was run: as §2

ML-2 [18] = assay: as above
How it was run: as §2

SHI-1 [19] = assay: as above
How it was run: as §2

K-562 [20] = assay: as above
How it was run: as §2

KG-1 [21] = assay: as above
How it was run: as §2

KCL-22 [22] = assay: as above
How it was run: as §2

KU-812 [23] = assay: as above
How it was run: as §2

MOLM-13 [24] = assay: as above
How it was run: as §2

Mono-Mac-6 [25] = assay: as above
How it was run: as §2

THP-1 [26] = assay: as above
How it was run: as §2

HL-60 [27] = assay: as above
How it was run: as §2

BV-173 [28] = assay: as above
How it was run: as §2

CCCCCCCCCCCC(=O)c1c(O)c(C(=O)CCCCCCCCCCC)c(O)c(C2CC(c3ccc(O)cc3)Oc3cc(O)ccc32)c1O (stereo not given)
Conditions	IC50 (cell viability) [µM]
BV-173 [14]	> 10
HEL [1]	> 10
HL-60 [13]	> 10
K-562 [6]	> 10
KCL-22 [8]	> 10
KG-1 [7]	> 10
KU-812 [9]	> 10
LAMA-84	> 10
ML-2 [4]	> 10
MOLM-13 [10]	> 10
MV4-11 [3]	> 10
Mono-Mac-6 [11]	> 10
NOMO-1 [2]	> 10
SHI-1 [5]	> 10
THP-1 [12]	> 10

cell viability [%]
Conditions	1 nM	10 nM	100 nM	1000 nM	10000 nM
BV-173 [28]	119	114	102	101	89
HEL [15]	108	97.8	115	110	87
HL-60 [27]	118	119	70.4	105	114
K-562 [20]	97.9	91.5	99.4	117	108
KCL-22 [22]	107	113	115	123	102
KG-1 [21]	101	117	128	101	81.8
KU-812 [23]	102	104	110	102	105
ML-2 [18]	105	114	118	116	104
MOLM-13 [24]	101	119	89.5	99.1	82.9
MV4-11 [17]	95.9	115	101	98.5	90.1
Mono-Mac-6 [25]	86.1	112	106	103	91.6
NOMO-1 [16]	108	118	110	111	96.7
SHI-1 [19]	95.1	111	102	112	104
THP-1 [26]	101	114	107	104	102

O=C(C1CC1)N1CC[C@@H](C=C2NNC(=O)N2c2ccc(-c3ccc4occc4c3)cc2)C1
Conditions	IC50 (cell viability) [µM]
BV-173 [14]	> 10
HEL [1]	> 10
HL-60 [13]	0.0437
K-562 [6]	> 10
KCL-22 [8]	9.06
KG-1 [7]	> 10
KU-812 [9]	> 10
LAMA-84	> 10
ML-2 [4]	> 10
MOLM-13 [10]	1.47
MV4-11 [3]	> 10
Mono-Mac-6 [11]	> 10
NOMO-1 [2]	> 10
SHI-1 [5]	> 10
THP-1 [12]	> 10

cell viability [%]
Conditions	1 nM	10 nM	100 nM	1000 nM	10000 nM
BV-173 [28]	97.1	86.3	82.4	79	63.7
HEL [15]	106	90.5	107	101	78.5
HL-60 [27]	101	66.7	48.4	35	38.1
K-562 [20]	95.4	78.1	73	79	54.4
KCL-22 [22]	99.1	101	94.9	86.2	58.3
KG-1 [21]	95.4	104	112	90.3	82.4
KU-812 [23]	99.8	94.8	99.9	102	67.1
ML-2 [18]	101	98.4	107	97.8	88.4
MOLM-13 [24]	101	77.4	75.1	53.2	44.7
MV4-11 [17]	88.1	95.7	81	84	59.9
Mono-Mac-6 [25]	94.7	91.2	90	88	64.9
NOMO-1 [16]	98.1	98.6	107	99.4	89.9
SHI-1 [19]	90.4	99.4	108	94.7	79.6
THP-1 [26]	98.7	93.3	104	103	101

O=C1O[C@H]([C@@H](O)CO)C(O)=C1O [Vitamin C (ascorbate)]
Conditions	IC50 (cell viability) [µM]
BV-173 [14]	> 10
HEL [1]	> 10
HL-60 [13]	> 10
K-562 [6]	> 10
KCL-22 [8]	> 10
KG-1 [7]	> 10
KU-812 [9]	> 10
LAMA-84	> 10
ML-2 [4]	> 10
MOLM-13 [10]	> 10
MV4-11 [3]	> 10
Mono-Mac-6 [11]	> 10
NOMO-1 [2]	> 10
SHI-1 [5]	> 10
THP-1 [12]	> 10

cell viability [%]
Conditions	1 nM	10 nM	100 nM	1000 nM	10000 nM
BV-173 [28]	94.2	113	103	99.2	118
HEL [15]	103	106	98.9	107	113
HL-60 [27]	104	91.2	101	108	84.7
K-562 [20]	99.2	96.3	92.8	104	89.4
KCL-22 [22]	90.2	96.2	97.7	88.1	92.6
KG-1 [21]	112	103	118	97.5	106
KU-812 [23]	96.8	104	99.5	95	108
ML-2 [18]	103	107	100	102	121
MOLM-13 [24]	101	103	91.6	94.2	107
MV4-11 [17]	102	102	111	111	92.1
Mono-Mac-6 [25]	103	109	98.8	101	108
NOMO-1 [16]	95.5	100	110	97.8	102
SHI-1 [19]	110	106	105	102	114
THP-1 [26]	96.4	100	103	103	99.9
